From patent publication US10004809B2, “Precise delivery of therapeutic agents to cell mitochondria for anti-cancer therapy” (UNIVERSITY OF GEORGIA RESEARCH FOUNDATION, INC., priority 2013, dated 2018)

Experiments:
Type in all cases: cell-based, Human
PC3 cells [1] = assay: JC-1 assay of mitochondrial membrane potential (Δψm), live cell imaging; details: for JC-1 Green:Red fluorescence ratio: 6 h
Source text: An early indication of the initiation of cellular apoptosis is the collapse in the electrochemical gradient across the mitochondrial membrane, as measured by the change in the Δψm (Perry et al., BioTechniques 50:98-115, 2011). […] The potential-sensitive color shift is due to the concentration dependent formation of red fluorescent “J aggregates.” Mitochondrial depolarization is indicated by an increase in the green/red fluorescence intensity ratio. Live cell imaging of prostate cancer (PCa) PC3 cells treated with Na-DCA (150 μM), TPP-DCA (150 μM), or MITO-DCA (50 μM), followed by staining with JC-1, and a comparative analysis of the JC-1 green/red fluorescence ratio from PC3 cells in response to these three DCA analogues are represented in FIG. 3. […] Quantification of fluorescence intensities was carried out using ImageJ and the corrected total cell fluorescence (CTCF) values are represented as histograms (FIG. 3).
PC3 cells were cultured on a live cell imaging glass bottom dish at a density of 1×10^6 cells/mL and allowed to grow overnight at 37° C. Cells were treated with 150 μM Na-DCA, 150 μM TPP-DCA, and 50 μM MITO-DCA for 6 h at 37° C. A solution of JC-1 reagent (10 μg/mL in RPMI) was added and incubation was carried out at 37° C. for 20 min. The cells were washed 3 times with PBS, and live cell imaging was performed in phenol red free RPMI media.

DU145 cells = assay: MTT cytotoxicity assay; details: for IC50: MTT, 72 h incubation
Method: (§1) The cytotoxic behaviors of MITO-DCA, TPP-DCA, Na-DCA, and TPP-Tris-(OH)3 were evaluated using the MTT assay against PC3, DU145, LNCaP, and MSC cells. Cells (2000 cells/well for PC3, DU145, and MSC cells; 5000 cells/well for LNCaP) were seeded on a 96-well plate in 100 μL of desired medium and incubated for 24 h. The cells were treated with different DCA compounds and TPP-Tris-(OH)3 at varying concentrations and incubated for 72 h at 37° C. The cells were then treated with 20 μL of MTT (5 mg/mL in PBS) for 5 h. The medium was removed, the cells were lysed with 100 μL of DMSO, and the absorbance of the purple tormazan was recorded at 550 nm using a Bio-Tek Synergy HT microplate reader. Each well was performed in triplicate. All experiments were repeated three times. Cytotoxicity was expressed as mean percentage increase relative to the unexposed control±SD. Control values were set at 0% cytotoxicity or 100% cell viability. Cytotoxicity data (where appropriate) was fitted to a sigmoidal curve and a three parameters logistic model used to calculate the IC50, which is the concentration of chemotherapeutics causing 50% inhibition in comparison to untreated controls. The mean IC50 is the concentration of agent that reduces cell growth by 50% under the experimental conditions and is the average from at least three independent measurements that were reproducible and statistically significant. The IC50 values were reported at ±99% confidence intervals. This analysis was performed with GraphPad Prism (San Diego, U.S.A).

LNCaP cells = assay: MTT cytotoxicity assay; details: for IC50: MTT, 72 h incubation
Method: as §1

PC3 cells [2] = assay: MTT cytotoxicity assay; details: for IC50: MTT, 72 h incubation
Method: as §1

MSC cells [3] = assay: MTT cytotoxicity assay on normal cells; details: 72 h
Method: as §1

MSC cells [4] = assay: Annexin V/PI apoptosis detection by flow cytometry
Method: In order to determine whether the enhanced activity of MITO-DCA upon targeting this compound to the mitochondria of cells was due to apoptosis rather than necrosis, an ALEXA FLUOR™ 488-Annexin-V and propidium iodide (PI) cell staining in PC3 and MSC cells was carried out and data were analyzed using flow cytometry (FIG. 4B). As controls, etoposide treated cells were used as early apoptosis population and H2O2 treated cells were marked as late apoptotic or necrotic population. […] There were no late apoptotic or necrotic cells observed with these compounds.
PC3 and MSC cells were seeded at a density of 1×10^6 cells/mL on each well of a six well plate and allowed to grow overnight. Cells were treated with 50 μM Na-DCA, 150 μM TPP-DCA, and 150 μM MITO-DCA for 12 h at 37° C. As positive controls, etoposide (100 μM, incubation time: 12 h) for apoptosis and H2O2 (1 mM, incubation time: 45 min) for necrosis were used. The cells were trypsinized, repeatedly washed, and centrifuged at 1,800 RPM for 3 min, and the supernatants were discarded. Cell density was determined and cells were resuspended in 1× annexin-binding buffer to ˜1×10^6 cells/mL preparing a sufficient volume to have 100 µL per assay. To 100 μL of cell suspension, 5 μL ALEXA FLUOR™ 488 annexin V and 1 µL 100 μg/mL PI working solution were added and incubated for 15 min at room temperature. After the incubation period, 400 μL 1× annexin-binding buffer was added to each sample, samples were gently mixed keeping the samples on ice and the samples were analyzed on the flow cytometer immediately.

PC3 cells [5] = assay: CELLTITER-GLO luminescent intracellular ATP quantification; details: for Increase in intracellular ATP levels: 3 h; for ATP level and cell growth at high concentration: PC3 cells, 6 h
Method: A decrease in cancer cell lactate levels is expected to be associated with an increase in ATP production. Intracellular ATP levels in PC3, LNCaP, and MSC cells treated with MITO-DCA (20 μM), TPP-DCA (60 μM), and Na-DCA (60 μM) were measured.
PC3 or MSC cells were plated at a density of 10,000 cells per well in 96-well plates compatible with the luminometer used in 100 μL media. […] Control wells containing medium without cells were prepared to obtain a value for background luminescence. Plates were then equilibrated at room temperature for ˜30 min. A volume of CELLTITER-GLO™ reagent equal to the volume of cell culture medium present in each well was added, this mixtures were well mixed for 2 min using a shaker to induce cell lysis. The plates were allowed to incubate at room temperature for 10 min to stabilize luminescent signal. Luminescent was recorded using a plate reader. ATP quantification was carried out from a standard curve using ATP disodium salt hydrate.

O=C(OCCC[P+](c1ccccc1)(c1ccccc1)c1ccccc1)C(Cl)Cl.[Br-] [TPP-DCA]
Change in Δψm (JC-1 imaging) (PC3 cells [1]; 150 μM): showed red fluorescence in most cells | JC-1 Green:Red fluorescence ratio (PC3 cells [1]; 150 μM): 0.49±0.09 | Times less active than MITO-DCA (DU145 cells; DU145 cells, from IC50): ~10 times | IC50 (DU145 cells): 468 ± 49 µM | Times less active than MITO-DCA (LNCaP cells; LNCaP cells, from IC50): ~10 times | IC50 (LNCaP cells): 302 ± 37 µM | IC50 (PC3 cells [2]): 68 ± 1 µM | Times less active than MITO-DCA (PC3 cells [2]; PC3 cells, from IC50): ~4 times | Toxicity in normal MSC cells (MSC cells [3]): did not show any toxic effects | Apoptosis (annexin V/PI) (MSC cells [4]; 150 μM): did not undergo apoptosis | Increase in intracellular ATP levels (PC3 cells [5]; 60 μM): did not show any significant increase | ATP level and cell growth at high concentration (PC3 cells [5]; 150 μM): ATP reduction and cell growth inhibition

O=C(CCCCC[P+](c1ccccc1)(c1ccccc1)c1ccccc1)NC(COC(=O)C(Cl)Cl)(COC(=O)C(Cl)Cl)COC(=O)C(Cl)Cl.[Br-] [MITO-DCA]
Change in Δψm (JC-1 imaging) (PC3 cells [1]; 50 μM): induced marked changes in Δψm | JC-1 Green:Red fluorescence ratio (PC3 cells [1]; 50 μM): 3.96±0.96 | Activity relative to Na-DCA (DU145 cells; DU145 cells, from IC50): three orders of magnitude more activity | IC50 (DU145 cells): 42 ± 2 µM | Activity relative to Na-DCA (LNCaP cells; LNCaP cells, from IC50): three orders of magnitude more activity | IC50 (LNCaP cells): 30 ± 6 µM | IC50 (PC3 cells [2]): 17 ± 1 µM | Activity relative to Na-DCA (PC3 cells [2]; PC3 cells, from IC50): three orders of magnitude more active | Toxicity in normal MSC cells (MSC cells [3]): did not show any toxic effects | Apoptosis (annexin V/PI) (MSC cells [4]; 50 μM): did not undergo apoptosis | Increase in intracellular ATP levels (PC3 cells [5]; 20 μM): ~44% | ATP level and cell growth at high concentration (PC3 cells [5]; 50 μM): ATP reduction and cell growth inhibition
